# Reference: patent US9139576B2, “Aminomethyl biaryl benzotriazole derivatives” (Merck Sharp & Dohme Corp., priority 2011, dated 2015)
# Target: T1, recombinant human mGluR2 (Homo sapiens, UniProt Q14416)
# T1 construct: expressed in transfected cells
# Assay: FLIPR Ca2+ mobilization assay, potentiation of mGluR2
# Type: cell-based
# Conditions: potentiation with EC20 glutamate (900 nM); CHO dhfr- cells expressing human mGluR2 and Gα16
# Protocol: Potencies are determined as follows. The compounds of the present invention may be tested in a fluorescence laser imaging plate reader (FLIPR) based assay. This assay is a common functional assay to monitor Ca^2+ mobilization in whole cells expressing recombinant receptor coupled with a promiscuous G-protein. CHO dhfr-cells stably expressing recombinant human mGluR2 and Gα16 loaded with Fluo-4 AM (Invitrogen, Carlsbad Calif.) are treated with varying concentrations of compounds and the Ca^2+ response is monitored on a FLIPR384 (Molecular Devices, Sunnydale Calif.) for agonist activity. The potentiation response is monitored after a subsequent addition of an EC20 concentration of glutamate (900 nM). The maximum calcium response at each concentration of compound for agonism or potentiation are plotted as dose responses curves fitted with a four parameters logistic equation giving EC50 and Hill coefficient using the iterative non linear curve fitting software program.
# T1 sequence (Q14416 19-872): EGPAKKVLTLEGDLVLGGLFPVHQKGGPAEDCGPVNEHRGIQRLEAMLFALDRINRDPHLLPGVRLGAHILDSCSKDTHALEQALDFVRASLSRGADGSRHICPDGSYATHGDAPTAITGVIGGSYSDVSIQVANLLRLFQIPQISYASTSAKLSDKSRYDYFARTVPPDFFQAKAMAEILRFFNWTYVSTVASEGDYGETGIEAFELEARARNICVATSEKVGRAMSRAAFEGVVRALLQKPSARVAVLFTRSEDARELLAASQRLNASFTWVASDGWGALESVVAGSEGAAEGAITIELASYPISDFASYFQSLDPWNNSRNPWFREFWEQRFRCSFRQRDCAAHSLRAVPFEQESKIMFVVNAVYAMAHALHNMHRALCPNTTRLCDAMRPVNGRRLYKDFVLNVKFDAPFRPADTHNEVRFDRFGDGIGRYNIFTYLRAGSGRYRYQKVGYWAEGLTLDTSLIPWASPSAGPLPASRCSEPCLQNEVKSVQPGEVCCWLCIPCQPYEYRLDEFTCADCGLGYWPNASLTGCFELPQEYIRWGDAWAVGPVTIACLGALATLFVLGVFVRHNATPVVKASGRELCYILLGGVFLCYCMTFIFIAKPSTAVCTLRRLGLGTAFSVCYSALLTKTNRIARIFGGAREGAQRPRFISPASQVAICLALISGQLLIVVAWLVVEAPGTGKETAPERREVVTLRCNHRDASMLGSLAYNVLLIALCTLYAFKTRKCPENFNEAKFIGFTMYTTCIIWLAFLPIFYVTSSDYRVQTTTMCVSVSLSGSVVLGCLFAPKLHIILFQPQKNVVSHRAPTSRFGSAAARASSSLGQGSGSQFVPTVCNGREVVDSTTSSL
row,Structure (SMILES),EC50 [nM]
1,"C[C@H](O)C(=O)NCc1ccc(-c2ccc3c(nnn3CC3CC3)c2C(F)(F)F)cc1 [Example 5, (2S)—N-{4-[1-(Cyclopropylmethyl)-4-(trifluoromethyl)-1H-benzotriazol-5-yl]benzyl}-2-hydroxypropanamide]",59.1
2,"Cn1c(=O)[nH]n(Cc2ccc(-c3ccc4c(nnn4CC(C)(C)C)c3Br)cc2)c1=O [Example 7, 1-{4-[4-Bromo-1-(2,2-dimethylpropyl)-1H-benzotriazol-5-yl]benzyl}-4-methyl-1,2,4-triazolidine-3,5-dione]",532
3,"CN1C(=O)CN(Cc2ccc(-c3ccc4c(nnn4CC4CC4)c3S(C)(=O)=O)cc2F)C1=O [Example 16, 1-{4-[1-(Cyclopropylmethyl)-4-(methylsulfonyl)-1H-benzotriazol-5-yl]-2-fluorobenzyl}-3-methylimidazolidine-2,4-dione]",245
4,"CN1C(=O)CN(Cc2ccc(-c3ccc4c(nnn4CC4CC4)c3[S+](C)[O-])cc2F)C1=O (stereo not shown) [Example 17, 1-{4-[1-(Cyclopropylmethyl)-4-(methylsulfinyl)-1H-benzotriazol-5-yl]-2-fluorobenzyl}-3-methylimidazolidine-2,4-dione]",1250
5,"CN1C(=O)CN(Cc2ccc(-c3ccc4c(nnn4CC4CC4)c3C#N)cc2)C1=O [Example 18, 1-(Cyclopropylmethyl)-5-{4-[(3-methyl-2,4-dioxoimidazolidin-1-yl)methyl]phenyl}-1H-benzotriazole-4-carbonitrile]",39
6,"CN1C(=O)CN(Cc2ccc(-c3ccc4c(nnn4CC4CC4)c3C=O)cc2)C1=O [Example 20, 1-(Cyclopropylmethyl)-5-{4-[(3-methyl-2,4-dioxoimidazolidin-1-yl)methyl]phenyl}-1H-benzotriazole-4-carbaldehyde]",56
7,"CN1C(=O)CN(Cc2ccc(-c3ccc4c(nnn4CC4CC4)c3CO)cc2)C1=O [Example 21, 1-{4-[1-(Cyclopropylmethyl)-4-(hydroxymethyl)-1H-benzotriazol-5-yl]benzyl}-3-methylimidazolidine-2,4-dione]",841
8,"CN1C(=O)CN(Cc2ccc(-c3ccc4c(c3)nnn4CC3CC3)cc2)C1=O [Example 28, 1-{4-[1-(Cyclopropylmethyl)-1H-benzotriazol-5-yl]benzyl}-3-methylimidazolidine-2,4-dione]",196
9,"[N-]=[N+]=NCc1ccc(-c2ccc3c(nnn3CC3CC3)c2Cl)cc1 [Example 37, 5-[4-(Azidomethyl)phenyl]-4-chloro-1-(cyclopropylmethyl)-1H-benzotriazole]",53
10,"NCc1ccc(-c2ccc3c(nnn3CC3CC3)c2Cl)cc1 [Example 38, 1-{4-[4-Chloro-1-(cyclopropylmethyl)-1H-benzotriazol-5-yl]phenyl}methanamine]",2320
11,"C[C@@H](O)C(=O)NCc1ccc(-c2ccc3c(nnn3CC3CC3)c2Cl)cc1 [Example 39, (2R)—N-{4-[4-chloro-1-(cyclopropylmethyl)-1H-benzotriazol-5-yl]benzyl}-2-hydroxypropanamide]",49
12,"CC(C)(C)OC(=O)N1CCN(Cc2ccc(-c3ccc4c(nnn4CC4CC4)c3Cl)cc2)CC1 [Example 52, tert-Butyl 4-{4-[4-chloro-1-(cyclopropylmethyl)-1H-benzotriazol-5-yl]benzyl}piperazine-1-carboxylate]",80
13,"Clc1c(-c2ccc(CN3CCNCC3)cc2)ccc2c1nnn2CC1CC1 [Example 71, 4-Chloro-1-(cyclopropylmethyl)-5-[4-(piperazin-1-ylmethyl)phenyl]-1H-benzotriazole]",234
14,"CCOC(=O)CNC(=O)NCc1ccc(-c2ccc3c(nnn3CC3CC3)c2Cl)cc1 [Example 83, Ethyl N-({4-[4-chloro-1-(cyclopropylmethyl)-1H-benzotriazol-5-yl]benzyl}carbamoyl)glycinate]",124

# These reach a lower EC50. Values come first.
row,EC50 [nM],Structure (SMILES)
1,34.9,"O=C1CNC(=O)N1Cc1ccc(-c2ccc3c(nnn3CC3CC3)c2Cl)cc1 [Example 84, 3-{4-[4-Chloro-1-(cyclopropylmethyl)-1H-benzotriazol-5-yl]benzyl}imidazolidine-2,4-dione]"
2,30.4,"N#CCC(=O)N1CCN(Cc2ccc(-c3ccc4c(nnn4CC4CC4)c3Cl)cc2)CC1 [Example 72, 3-(4-{4-[4-Chloro-1-(cyclopropylmethyl)-1H-benzotriazol-5-yl]benzyl}piperazin-1-yl)-3-oxopropanenitrile]"
3,17.3,"CN1C(=O)CN(Cc2ccc(-c3ccc4c(nnn4CC4CC4)c3C(F)(F)F)c(F)n2)C1=O [Example 1, 1-({5-[1-(Cyclopropylmethyl)-4-(trifluoromethyl)-1H-benzotriazol-5-yl]-6-fluoropyridin-2-yl}methyl)-3-methylimidazolidine-2,4-dione]"
4,14,"CN1C(=O)CN(Cc2ccc(-c3ccc4c(nnn4CC4CC4)c3CF)cc2)C1=O [Example 22, 1-{4-[1-(Cyclopropylmethyl)-4-(fluoromethyl)-1H-benzotriazol-5-yl]benzyl}-3-methylimidazolidine-2,4-dione]"
5,11.4,"CN1C(=O)CN(Cc2ccc(-c3ccc4c(nnn4CC4CC4)c3Cl)cc2)C1=O [Example 29, 1-{4-[4-Chloro-1-(cyclopropylmethyl)-1H-benzotriazol-5-yl]benzyl}-3-methylimidazolidine-2,4-dione]"
6,11.4,"O=C1CN(Cc2ccc(-c3ccc4c(nnn4CC4CC4)c3Cl)cc2)C(=O)N1 [Example 51, 1-{4-[4-Chloro-1-(cyclopropylmethyl)-1H-benzotriazol-5-yl]benzyl}imidazolidine-2,4-dione]"
7,9.21,"O=C1CN(Cc2ccc(-c3ccc4c(nnn4CC4CC4)c3C(F)(F)F)cc2)C(=O)N1 [Example 4, 1-{4-[1-(Cyclopropylmethyl)-4-(trifluoromethyl)-1H-benzotriazol-5-yl]benzyl}imidazolidine-2,4-dione]"
8,8.9,"CN1CC(=O)N(Cc2ccc(-c3ccc4c(nnn4CC4CC4)c3Cl)cc2)C1=O [Example 85, 3-{4-[4-Chloro-1-(cyclopropylmethyl)-1H-benzotriazol-5-yl]benzyl}-1-methylimidazolidine-2,4-dione]"
9,7.8,"CCc1c(-c2ccc(CN3CC(=O)N(C)C3=O)cc2)ccc2c1nnn2CC1CC1 [Example 19, 1-{4-[1-(Cyclopropylmethyl)-4-ethyl-1H-benzotriazol-5-yl]benzyl}-3-methylimidazolidine-2,4-dione]"
10,6.6,"CSc1c(-c2ccc(CN3CC(=O)N(C)C3=O)c(F)c2)ccc2c1nnn2CC1CC1 [Example 15, 1-{4-[1-(Cyclopropylmethyl)-4-(methylsulfanyl)-1H-benzotriazol-5-yl]-2-fluorobenzyl}-3-methylimidazolidine-2,4-dione]"
11,6.1,"CC(C)Cn1nnc2c(C(F)(F)F)c(-c3ccc(CN4CC(=O)N(C)C4=O)cc3)ccc21 [Example 9, 3-Methyl-1-{4-[1-(2-methylpropyl)-4-(trifluoromethyl)-1H-benzotriazol-5-yl]benzyl}imidazolidine-2,4-dione]"
12,5.8,"CN1C(=O)CN(Cc2ccc(-c3ccc4c(nnn4CC4CC4)c3C(F)(F)F)cc2)C1=O [Example 2, 1-{4-[1-(Cyclopropylmethyl)-4-(trifluoromethyl)-1H-benzotriazol-5-yl]benzyl}-3-methylimidazolidine-2,4-dione]"
13,5.3,"CN1C(=O)CN(Cc2ccc(-c3ccc4c(nnn4CC4CC4)c3Br)cc2)C1=O [Example 10, 1-{4-[4-Bromo-1-(cyclopropylmethyl)-1H-benzotriazol-5-yl]benzyl}-3-methylimidazolidine-2,4-dione]"
14,3,"CC(C)Cn1nnc2c(Br)c(-c3ccc(CN4CC(=O)N(C)C4=O)cc3)ccc21 [Example 8, 1-{4-[4-Bromo-1-(2-methylpropyl)-1H-benzotriazol-5-yl]benzyl}-3-methylimidazolidine-2,4-dione]"
